According to BindingDB's records for doi:10.1021/jm049787k (Pharmaceutical Research Institute, 2004):
pIC50: −log10 of the molar value.

Molecular target: Corticotropin-releasing factor receptor 2 (Sus scrofa)
Assay: Inhibition of [125I]- sauvagine binding to corticotropin releasing factor receptor 2 of porcine choroid plexus

`CCc1nc2c(n1C(C1CC1)C1CC1)C(=O)N(C)CN2c1ccc(Cl)cc1Cl` [3-(2,4-Dichloro-phenyl)-7-dicyclopropylmethyl-8-ethyl-1-methyl-1,2,3,7-tetrahydro-purin-6-one] showed a pIC50 of under 5.00.
